Assay: human clinical trial of lung delivery by inhalation of [99mTc]DTPA aerosol from the nebuliser
Assay type: in vivo
Settings: for Left lung dose / Right lung dose / Total lung dose: inhalation via described nebuliser, unadjusted
Text: Nebulisers in accordance with the described embodiments have been subject to human clinical trials to determine efficiency of delivery of active agents to the lungs by inhalation using Technetium-99m DTPA aerosol ([^99mTc]DTPA aerosol).

- Left lung dose (Volunteer 1): 7.15 MBq
- Right lung dose (Volunteer 1): 8.25 MBq
- Total lung dose (Volunteer 1): 15.4 MBq
- Left lung dose (Volunteer 2): 25.2 MBq
- Right lung dose (Volunteer 2): 27.1 MBq
- Total lung dose (Volunteer 2): 52.3 MBq
- Left lung dose (Volunteer 3): 22.2 MBq
- Right lung dose (Volunteer 3): 21.9 MBq
- Total lung dose (Volunteer 3): 44.1 MBq
- Left lung dose (Volunteer 4): 23.3 MBq
- Right lung dose (Volunteer 4): 26.6 MBq
- Total lung dose (Volunteer 4): 49.9 MBq
Substance: Technetium-99m DTPA [[^99mTc]DTPA aerosol]
- efficiency of delivery to the lungs by inhalation (human clinical trials, initial results): effective delivery of nebulised active agent to the target tissue
